From US20170057955A1, “Pyridopyrimidinone Compounds for Modulating the Catalytic Activity of Histone Lysine Demethylases (KDMs)” (Dong-A Socio Holdings Co., Ltd., priority 2015, published 2017)

Target: T1, Recombinant human JARID1B/KDM5B (Homo sapiens, UniProt Q9UGL1)
T1 construct: purchased Active Motif 31432; host or cells: Sf9 insect cells
Assay: LANCE Ultra TR-FRET JARID1B (KDM5B) demethylase inhibition assay
Assay type: biochemical
Conditions: 0.1 uM of test-compounds, FLAG-JARID1B, 500 nM biotinylated H3K4me3 peptide substrate, 30 min at room temperature
Method in brief: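 FLAG-tagged JARID1B from Sf9 cells, pre-incubated 5 min with 0.1 uM compound (1% DMSO), then 500 nM biotinylated H3K4me3 peptide, 500 uM 2-OG, 25 uM Fe(II), 2 mM ascorbate in pH 7.5 Hepes buffer. After 30 min at room temperature, H3K4me2/1 product detected by TR-FRET (665/590 nm ratio).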

T1 sequence (Q9UGL1 whole entry): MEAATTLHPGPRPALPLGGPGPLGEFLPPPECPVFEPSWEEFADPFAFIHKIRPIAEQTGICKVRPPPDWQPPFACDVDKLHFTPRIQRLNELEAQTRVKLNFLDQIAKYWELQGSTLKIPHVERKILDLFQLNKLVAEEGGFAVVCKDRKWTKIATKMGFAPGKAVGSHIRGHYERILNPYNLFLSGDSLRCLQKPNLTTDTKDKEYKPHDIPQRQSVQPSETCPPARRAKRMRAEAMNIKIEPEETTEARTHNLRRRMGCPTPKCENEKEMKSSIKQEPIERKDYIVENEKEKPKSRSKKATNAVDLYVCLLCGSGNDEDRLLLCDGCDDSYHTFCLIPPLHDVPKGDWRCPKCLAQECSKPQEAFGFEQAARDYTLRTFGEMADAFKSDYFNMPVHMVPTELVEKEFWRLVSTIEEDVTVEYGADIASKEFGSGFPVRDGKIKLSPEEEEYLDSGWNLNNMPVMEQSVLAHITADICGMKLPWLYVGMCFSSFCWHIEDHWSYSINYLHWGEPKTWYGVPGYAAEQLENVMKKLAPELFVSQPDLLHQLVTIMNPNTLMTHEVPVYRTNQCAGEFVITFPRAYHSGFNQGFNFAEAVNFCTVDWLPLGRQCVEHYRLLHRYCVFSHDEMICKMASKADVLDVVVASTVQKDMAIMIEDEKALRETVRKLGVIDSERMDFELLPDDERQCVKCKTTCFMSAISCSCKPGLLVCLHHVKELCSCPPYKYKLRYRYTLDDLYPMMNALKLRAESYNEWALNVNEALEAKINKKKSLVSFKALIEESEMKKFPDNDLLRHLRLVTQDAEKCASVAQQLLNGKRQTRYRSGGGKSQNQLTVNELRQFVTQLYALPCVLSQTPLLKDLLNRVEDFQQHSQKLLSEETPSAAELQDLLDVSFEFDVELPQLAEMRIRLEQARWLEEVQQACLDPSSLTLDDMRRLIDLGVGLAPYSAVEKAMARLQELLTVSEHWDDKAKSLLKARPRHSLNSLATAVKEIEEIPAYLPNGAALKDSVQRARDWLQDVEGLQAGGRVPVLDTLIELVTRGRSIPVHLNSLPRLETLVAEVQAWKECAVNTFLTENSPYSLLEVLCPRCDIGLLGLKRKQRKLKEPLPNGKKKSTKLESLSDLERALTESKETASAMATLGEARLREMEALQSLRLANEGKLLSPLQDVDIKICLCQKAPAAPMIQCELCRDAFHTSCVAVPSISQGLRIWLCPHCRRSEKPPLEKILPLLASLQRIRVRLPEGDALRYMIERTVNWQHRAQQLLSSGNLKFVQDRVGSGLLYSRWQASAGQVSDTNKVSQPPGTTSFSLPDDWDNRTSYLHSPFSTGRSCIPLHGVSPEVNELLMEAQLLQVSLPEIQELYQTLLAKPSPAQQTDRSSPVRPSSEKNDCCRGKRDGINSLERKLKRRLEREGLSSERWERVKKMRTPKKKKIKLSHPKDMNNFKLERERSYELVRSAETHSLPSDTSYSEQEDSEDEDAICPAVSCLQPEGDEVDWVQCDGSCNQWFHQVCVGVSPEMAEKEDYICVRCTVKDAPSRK

inhibition at 0.1 µM | SMILES
20 to 50% | O=c1[nH]c(CCc2ccccc2)nc2c(-c3csc(NCCO)n3)nccc12 [Compound 161, 8-(2-((2-hydroxyethyl)amino)thiazol-4-yl)-2-phenethylpyrido[3,4-d]pyrimidin-4(3H)-one]
20 to 50% | CN(C)CCNc1nc(-c2nccc3c(=O)[nH]c(CCc4ccccc4)nc23)cs1 [Compound 162, 8-(2-((2-(dimethylamino)ethyl)amino)thiazol-4-yl)-2-phenethylpyrido[3,4-d]pyrimidin-4(3H)-one]
20 to 50% | CN1CCC(Nc2nc(-c3nccc4c(=O)[nH]c(CCc5ccccc5)nc34)cs2)CC1 [Compound 163, 8-(2-((1-methylpiperidin-4-yl)amino)thiazol-4-yl)-2-phenethylpyrido[3,4-d]pyrimidin-4(3H)-one]
≥ 50% | O=c1[nH]c(CCc2ccccc2)nc2c(-c3csc(NC4CCN(Cc5ccccc5)CC4)n3)nccc12 [Compound 164, 8-(2-((1-benzylpiperidin-4-yl)amino)thiazol-4-yl)-2-phenethylpyrido[3,4-d]pyrimidin-4(3H)-one]
20 to 50% | Nc1nc(-c2nccc3c(=O)[nH]c(CCc4ccc(F)cc4)nc23)cs1 [Compound 165, 8-(2-aminothiazol-4-yl)-2-(4-fluorophenethyl)pyrido[3,4-d]pyrimidin-4(3H)-one]
20 to 50% | Nc1nc(-c2nccc3c(=O)[nH]c(CCCc4ccccc4)nc23)cs1 [Compound 166, 8-(2-aminothiazol-4-yl)-2-(3-phenylpropyl)pyrido[3,4-d]pyrimidin-4(3H)-one]
20 to 50% | O=c1[nH]c(-c2cc3ccccc3o2)nc2c(-c3csc(NCCO)n3)nccc12 [Compound 167, 2-(benzofuran-2-yl)-8-(2-((2-hydroxyethyl)amino)thiazol-4-yl)pyrido[3,4-d]pyrimidin-4(3H)-one]
< 20% | C[C@H](O)CNc1nc(-c2nccc3c(=O)[nH]c(-c4cc5ccccc5o4)nc23)cs1 [Compound 168, (S)-2-(benzofuran-2-yl)-8-(2-((2-hydroxypropyl)amino)thiazol-4-yl)pyrido[3,4-d]pyrimidin-4(3H)-one]
